# In article PMC9515143, “Phosphorylation of Jhd2 by the Ras-cAMP-PKA(Tpk2) pathway regulates histone modifications and autophagy” (Nature Communications, 2022):
# Experiments:
# Type in all cases: cell-based, budding yeast (Saccharomyces cerevisiae)
# [1] = tested on: histone modifications; assay: Effect of glucose on histone modifications in WT and ubp8∆ ubp10∆ mutant (Western blot); conditions: for relative histone modification level (Figure S1c): 0.5 hr
# Text: To identify the signaling pathway that mediates glucose-induced H3K4me3, we first examined the effect of glucose on histone modifications that regulate Set1-catalyzed H3K4me3, including H2BK123 monoubiquitination (H2Bub) and H3R2 asymmetric dimethylation (H3R2me2a)[30]–[32]. […] We then determine whether glucose increases H3K4me3 by inducing H2Bub. As there is no H3K4me3 in the deletion mutants of RAD6 and BRE1, which catalyze H2Bub[30],[31], it is impossible to determine the effect of glucose on H3K4me3 in rad6Δ and bre1Δ mutants. We thus examined the effect of glucose on H3K4me3 in the deletion mutant of UBP8 and UBP10, which encode H2B ubiquitin proteases[33],[34]. […] We also examined the effect of glucose on the activity of Set1-containing complex (COMPASS).
# (§1) To examine the effect of glucose on histone modifications, yeast cells were grown in 2% glucose-containing YPD (Yeast Extract Peptone Dextrose) medium until OD600 of 0.7–1.0. Cells were then collected, washed and resuspended in YP medium for 3 hr followed by treatment with different concentrations of glucose for 0.5 hr. For 1NM-PP1 (MCE, HY-13804) treatment, cells were grown in 2% YPD until OD600 of 0.7–1.0. Cells were then treated with 25 μM 1NM-PP1 for 0.5 hr. For FBP and pyruvate treatment, cells were pre-treated with Zymolase (Mpbio, 08320921) to increase the permeability. In brief, cells were grown in YPD medium until OD600 of 0.7–1.0, centrifuged and resuspended in 1 ml SB buffer (100 mM Sorbitol, 20 mM Tris pH 7.4). 10 μl Zymolase was then added and incubated at 30 °C for 15 min. The spheroplasts were washed and cultured in YPD medium containing different concentrations of FBP and pyruvate for 3 hr.
# Cells were grown in 5 ml YPD or selective medium until OD600 of 0.7–1.0. Cells were harvested and lysed in alkaline lysis buffer (2 M NaOH, 8% 2-mercaptoethanol). After centrifugation, the protein pellet was resuspended in 150 μl 2×SDS-sample buffer. Protein samples were separated by 8–15% SDS-PAGE and transferred to PVDF membrane. The blots were probed with primary antibodies followed by incubation with horseradish peroxidase-labelled IgG secondary antibodies. The protein bands were visualized using the ECL Chemiluminescence Detection Kit (Bio-Rad, 170–5061) and quantified with Image J software (v.1.8.0).
# Supplementary Fi g . 1 Glu cose induces H3K4me 3 via the Ras-cAMP-PKA(T p k 2) pathway. […]
# Cells were th en tr eat ed with YP medium supplement ed with differen t concentrations of glucos e for 0.5 hr. C ells were h ar vested an d the ex tract ed histones w er e anal yz ed by Western blots with indicat ed ant ibodies. To d et ect H2B monoubiquitination, H2B-F LAG strain w as used and d et ect ed with anti -F LAG ant ibody. Th e upper bands ar e monoubiquitinat ed H2B-F LAG. c E ff e c t of gl ucose on histone modifications in WT and ubp8∆ ubp10∆ mutant. WT and ubp8∆ ubp10∆ mut ant w er e gro wn in YPD medium unti l OD600 of […]
# For Supplem ent ar y Fi g. 1b, e-g, i-k, d at a r ep res ent means ± SEM; n=3 i ndependent ex perim ents. For Supplem entar y Fi g. 1c, d ata represent means ± SEM; n=4 independent ex periments. Tw o -sided t-tests were used for statistical analysis.
# [2] = tested on: Jhd2 phosphorylation; assay: Jhd2 phosphorylation in cells at different glucose concentrations; conditions: 0.05%, 0.5%, 2% glucose, WT, Jhd2-S321A, S340A and tpk2Δ
# Method: as §1
# Cells were grown in 5 ml YPD or selective medium until OD600 of 0.7–1.0. Cells were harvested and lysed in alkaline lysis buffer (2 M NaOH, 8% 2-mercaptoethanol). After centrifugation, the protein pellet was resuspended in 150 μl 2×SDS-sample buffer. Protein samples were separated by 8–15% SDS-PAGE and transferred to PVDF membrane. […] The protein bands were visualized using the ECL Chemiluminescence Detection Kit (Bio-Rad, 170–5061) and quantified with Image J software (v.1.8.0).
# [3] = tested on: H3K79me3; assay: ChIP-qPCR of H3K79me3/H3 (rebuttal); conditions: 0.05% versus 2% glucose
compound,measurement,setting,value
OC[C@H]1OC(O)[C@H](O)[C@@H](O)[C@@H]1O (stereo partly shown) [glucose],relative histone modification level (Figure S1c),"[1]; WT, 0.5% glucose, relative to WT 0.05% = 1, replicate 1",1.436
same,relative histone modification level (Figure S1c),"[1]; WT, 0.5% glucose, relative to WT 0.05% = 1, replicate 2",1.642
same,relative histone modification level (Figure S1c),"[1]; WT, 0.5% glucose, relative to WT 0.05% = 1, replicate 3",1.498
same,relative histone modification level (Figure S1c),"[1]; WT, 0.5% glucose, relative to WT 0.05% = 1, replicate 4",1.3798
same,relative histone modification level (Figure S1c),"[1]; WT, 2% glucose, relative to WT 0.05% = 1, replicate 1",1.805
same,relative histone modification level (Figure S1c),"[1]; WT, 2% glucose, relative to WT 0.05% = 1, replicate 2",2.101
same,relative histone modification level (Figure S1c),"[1]; WT, 2% glucose, relative to WT 0.05% = 1, replicate 3",2.2062
same,relative histone modification level (Figure S1c),"[1]; WT, 2% glucose, relative to WT 0.05% = 1, replicate 4",1.619
same,relative histone modification level (Figure S1c),"[1]; WT, 4% glucose, relative to WT 0.05% = 1, replicate 1",1.732
same,relative histone modification level (Figure S1c),"[1]; WT, 4% glucose, relative to WT 0.05% = 1, replicate 2",2.2477
same,relative histone modification level (Figure S1c),"[1]; WT, 4% glucose, relative to WT 0.05% = 1, replicate 3",2.452
same,relative histone modification level (Figure S1c),"[1]; WT, 4% glucose, relative to WT 0.05% = 1, replicate 4",2.7285
same,H3K4me3 level in ubp8Δ ubp10Δ mutant,"[1]; ubp8Δ ubp10Δ, glucose 0.5 hr, Western blot",H3K4me3 was still increased by glucose
same,relative histone modification level (Figure S1c),"[1]; ubp8Δubp10Δ, 0.05% glucose, relative to WT 0.05% = 1, replicate 1",1.962
same,relative histone modification level (Figure S1c),"[1]; ubp8Δubp10Δ, 0.05% glucose, relative to WT 0.05% = 1, replicate 2",2.0252
same,relative histone modification level (Figure S1c),"[1]; ubp8Δubp10Δ, 0.05% glucose, relative to WT 0.05% = 1, replicate 3",1.753
same,relative histone modification level (Figure S1c),"[1]; ubp8Δubp10Δ, 0.05% glucose, relative to WT 0.05% = 1, replicate 4",1.8754
same,relative histone modification level (Figure S1c),"[1]; ubp8Δubp10Δ, 0.5% glucose, relative to WT 0.05% = 1, replicate 1",2.076
same,relative histone modification level (Figure S1c),"[1]; ubp8Δubp10Δ, 0.5% glucose, relative to WT 0.05% = 1, replicate 2",2.387
same,relative histone modification level (Figure S1c),"[1]; ubp8Δubp10Δ, 0.5% glucose, relative to WT 0.05% = 1, replicate 3",2.436
same,relative histone modification level (Figure S1c),"[1]; ubp8Δubp10Δ, 0.5% glucose, relative to WT 0.05% = 1, replicate 4",1.826
same,relative histone modification level (Figure S1c),"[1]; ubp8Δubp10Δ, 2% glucose, relative to WT 0.05% = 1, replicate 1",2.343
same,relative histone modification level (Figure S1c),"[1]; ubp8Δubp10Δ, 2% glucose, relative to WT 0.05% = 1, replicate 2",2.512
same,relative histone modification level (Figure S1c),"[1]; ubp8Δubp10Δ, 2% glucose, relative to WT 0.05% = 1, replicate 3",2.749
same,relative histone modification level (Figure S1c),"[1]; ubp8Δubp10Δ, 2% glucose, relative to WT 0.05% = 1, replicate 4",2.579
same,relative histone modification level (Figure S1c),"[1]; ubp8Δubp10Δ, 4% glucose, relative to WT 0.05% = 1, replicate 1",3.366
same,relative histone modification level (Figure S1c),"[1]; ubp8Δubp10Δ, 4% glucose, relative to WT 0.05% = 1, replicate 2",3.228
same,relative histone modification level (Figure S1c),"[1]; ubp8Δubp10Δ, 4% glucose, relative to WT 0.05% = 1, replicate 3",2.75
same,relative histone modification level (Figure S1c),"[1]; ubp8Δubp10Δ, 4% glucose, relative to WT 0.05% = 1, replicate 4",2.722
same,Jhd2 phosphorylation in response to glucose,[2],"Jhd2 phosphorylation was elevated when the concentration of glucose was increased from 0.05 to 2% in WT but not in Jhd2-S321A, S340A and tpk2Δ mutants"
same,"H3K79me3 occupancy at PAU8, DRS2 and ATG5",[3],"glucose significantly increased H3K79me3 at H2Bub-dependent genes (PAU8, DRS2)"
